# Results published in paper PMC7071032, “In Vitro Inhibition of Hsp90 Protein by Benzothiazoloquinazolinequinones Is Enhanced in The Presence of Ascorbate. A Preliminary In Vivo Antiproliferative Study” (Molecules, 2020).
# Where two headings read alike, the source gives them in different places.
# How the values were obtained:
# [1] = test system: DU-145 (prostate) cells; experiment: MTT reduction assay, DU-145 cells; assay type: cell-based; conditions: Homo sapiens, DU-145, 48 h, read-out: IC50 ± SEM DU-145
# Procedure: (§1) As positive control, two well-known anticancer drugs, namely TAM and 5-FU, were also tested on these cell lines. […] Regarding 5-FU, it is a broad-spectrum chemotherapeutic drug used to treat a variety of malignancies. Particularly, it has a long history of use against bladder tumors.
# (§2) Cell culture conditions were the same as reported elsewhere. Briefly, cell lines were kept in DMEM containing 10% fetal calf serum. In addition, 100 U/mL of penicillin and 100 µg/mL streptomycin from Gibco (Grand Island, NY, USA) were further added. Cell cultures were kept at 37 °C under an atmosphere of 95% air/5% CO2 and 100% humidity. Sodium L-ascorbate, menadione (vitamin K3), TAM, and 5-FU were purchased from Sigma (St. Louis, MO, USA).
# (§3) The cytotoxicity of the quinones was assessed by following the reduction of MTT (3-(4,5-dimethylthiazol-2-yl)-2,5-diphenyltetrazolium bromide) to formazan blue and the capability of cancer cells to proliferate, namely a clonogenic assay.
# (§4) Cells were seeded into 96-well plates at a density of 10,000 cells/well for 24 h and then incubated for 48 h with or without the quinone derivatives. […] The IC50 values were determined using the GraphPad Prism software (San Diego, CA, USA). Further incubation procedures and optical density reading of colored solutions were performed according to Benites et al..
# [2] = test system: panel of cancer cells (T24, DU-145, MCF-7); experiment: MTT reduction assay, panel of cancer cells (means, ranges, selectivity index); assay type: cell-based, human; conditions: for MSI: mean selective index: IC50 values of fibroblasts (AG 1523)/IC50 values of tumor cells (T24, DU-145, MCF-7); for IC50: Homo sapiens
# Procedure: as §1
# Such a selective index was calculated as the ratio between IC50 values of healthy cells/IC50 values in cancer cells.
# as §4
# [3] = test system: T24 (bladder) cells; experiment: MTT reduction assay, T24 cells; assay type: cell-based; conditions: Homo sapiens, T-24, 48 h incubation, read-out: IC50 ± SEM T24
# Procedure: as §1, §2, §3, §4
# [4] = test system: non-tumor fibroblasts AG 1523; experiment: MTT reduction assay, non-tumor fibroblasts; assay type: cell-based; conditions: Homo sapiens, AG1523, 48 h incubation, read-out: IC50 ± SEM AG 1523
# Procedure: as §1, §2, §3, §4
# [5] = test system: MCF-7 (breast) cells; experiment: MTT reduction assay, MCF-7 cells; assay type: cell-based; conditions: Homo sapiens, MCF7, 48 h incubation, read-out: IC50 ± SEM MCF-7
# Procedure: as §1, §2, §3, §4
# [6] = test system: MCF-7 (breast) cells; design: method as in doi:10.1016/j.tetlet.2015.07.034; conditions: MTT, data from Valderrama et al. ref 16, read-out: IC50 ± SEM MCF-7; cited from earlier work
# [7] = test system: DU-145 (prostate) cells; design: method as in doi:10.1016/j.tetlet.2015.07.034; conditions: read-out: IC50 ± SEM DU-145, MTT, data from Valderrama et al. ref 16; cited from earlier work
# [8] = test system: T24 cells; experiment: Clonogenic assay; assay type: cell-based, human; conditions: for cell growth compared to control conditions (100%), in brackets / number of colony forming units (CFUs): T24 cells; for number of colony forming units (CFUs): 24 h treatment, 10 days growth
# Procedure: Indeed, at a dose of 0.25 µM, it decreased from 195 to 72 the number of CFUs. Otherwise, it inhibits the proliferation of T24 cells by 63% as compared to the control untreated cells. […] The percentages of the observed cell growth compared to control conditions (100%) are indicated in brackets. […] Cells were allowed to adhere overnight, and then treated with quinones for 24 h. Afterward, they were washed with warm PBS, given fresh medium, and allowed to grow for 10 days. Clonogenic survival was determined by fixing and staining colonies using crystal violet and further counting their number. The number of colonies calculated under control conditions was set as 100%.
# [9] = test system: T24 (bladder) cells; design: method as in doi:10.1016/j.tetlet.2015.07.034; conditions: MTT, data from Valderrama et al. ref 16, read-out: IC50 ± SEM T24; cited from earlier work
# [10] = read-out: IC50 values on the panel of cancer cells (range over cell lines)
# [11] = read-out: mean IC50 value calculated from the individual IC50 values of the three cancer cell lines
Structure (SMILES),IC50 [1],MSI: mean selective index [2],IC50 [3],IC50 [4],IC50 [5],"IC50 [2, 11]",further results
CCCCCC1(O)C2=C(N=C3Sc4cc(OC)ccc4N31)C(=O)c1ccccc1C2=O (centres unmarked) [Compound 21],7.43 ± 0.28 µM,1.78,7.09 ± 0.14 µM,11.3 ± 1.1 µM,4.63 ± 0.3 µM,–,–
CCCCCCCC1(O)C2=C(N=C3Sc4cc(OC)ccc4N31)C(=O)c1ccccc1C2=O (centres unmarked) [Compound 22],6.62 ± 0.19 µM,1.11,5.95 ± 0.45 µM,5.97 ± 0.24 µM,3.52 ± 0.32 µM,–,–
CCCCCCCC1(O)C2=C(N=C3Sc4cc(C)ccc4N31)C(=O)c1ccccc1C2=O (centres unmarked) [Compound 18],7.55 ± 0.69 µM,0.89,5.6 ± 0.29 µM,6.02 ± 0.29 µM,7.12 ± 0.65 µM,–,–
COc1ccc2c(c1)SC1=NC3=C(C(=O)c4ccccc4C3=O)C(C)(O)N12 (centres unmarked) [Compound 19],–,3.97,–,6.4 ± 0.46 µM,–,1.1 to 1.61 µM,"IC50 [6]: 2.72 ± 0.18 µM; IC50 [7]: 0.79 ± 0.11 µM; IC50 [2, 10]: 0.11 to 1.77 µM; inhibition at 0.25 µM ([8]; Homo sapiens, T-24, clonogenic assay, 0.25 µM, read-out: inhibition of the proliferation of T24 cells as compared to control untreated cells): 28%; cell growth compared to control conditions (100%), in brackets ([8]; 0.025 µM): 102%; number of colony forming units (CFUs) ([8]; 0.025 µM): 195 ± 16 CFUs; cell growth compared to control conditions (100%), in brackets ([8]; 0.125 µM): 96%; number of colony forming units (CFUs) ([8]; 0.125 µM): 183 ± 21 CFUs; cell growth compared to control conditions (100%), in brackets ([8]; 0.25 µM): 72%; number of colony forming units (CFUs) ([8]; 0.25 µM): 138 ± 18 CFUs; cell growth compared to control conditions (100%), in brackets ([8]; 1.25 µM): 36%; number of colony forming units (CFUs) ([8]; 1.25 µM): 68 ± 12 CFUs; cell growth compared to control conditions (100%), in brackets ([8]; 2.5 µM): 16%; number of colony forming units (CFUs) ([8]; 2.5 µM): 30 ± 16 CFUs; cell growth compared to control conditions (100%), in brackets ([8]; 5.0 µM): 18%; number of colony forming units (CFUs) ([8]; 5.0 µM): 35 ± 11 CFUs; IC50 [9]: 1.32 ± 0.11 µM"
O=C1C2=C(C(=O)c3ccccc31)C(O)(c1cccs1)N1C(=N2)Sc2cc(F)ccc21 (centres unmarked) [Compound 26],10.8 ± 1.01 µM,1.88,13.4 ± 2.37 µM,19.8 ± 0.83 µM,7.46 ± 0.53 µM,10.5 to 12.6 µM,–
CCCCCC1(O)C2=C(N=C3Sc4ccccc4N31)C(=O)c1ccccc1C2=O (centres unmarked) [Compound 13],7.99 ± 0.17 µM,1.24,6.85 ± 0.54 µM,8.55 ± 0.35 µM,5.83 ± 0.25 µM,–,–
COc1ccc2c(c1)SC1=NC3=C(C(=O)c4ccccc4C3=O)C(O)(c3ccco3)N12 (centres unmarked) [Compound 24],4.69 ± 0.33 µM,10.1,10.4 ± 1 µM,90.1 ± 1.21 µM,11.7 ± 0.65 µM,–,–
CCCC1(O)C2=C(N=C3Sc4cc(C)ccc4N31)C(=O)c1ccccc1C2=O (centres unmarked) [Compound 16],–,2.62,–,3.46 ± 0.08 µM,–,1.1 to 1.61 µM,"IC50 [6]: 1.77 ± 0.26 µM; IC50 [7]: 0.85 ± 0.1 µM; IC50 [2, 10]: 0.11 to 1.77 µM; cell growth compared to control conditions (100%), in brackets ([8]; 0.025 µM): 101%; number of colony forming units (CFUs) ([8]; 0.025 µM): 204 ± 19 CFUs; cell growth compared to control conditions (100%), in brackets ([8]; 0.125 µM): 107%; number of colony forming units (CFUs) ([8]; 0.125 µM): 216 ± 29 CFUs; cell growth compared to control conditions (100%), in brackets ([8]; 0.25 µM): 94%; number of colony forming units (CFUs) ([8]; 0.25 µM): 189 ± 12 CFUs; cell growth compared to control conditions (100%), in brackets ([8]; 1.25 µM): 39%; number of colony forming units (CFUs) ([8]; 1.25 µM): 79 ± 9 CFUs; cell growth compared to control conditions (100%), in brackets ([8]; 2.5 µM): 29%; number of colony forming units (CFUs) ([8]; 2.5 µM): 58 ± 12 CFUs; cell growth compared to control conditions (100%), in brackets ([8]; 5.0 µM): 11%; number of colony forming units (CFUs) ([8]; 5.0 µM): 23 ± 15 CFUs; IC50 [9]: 1.36 ± 0.15 µM"
"O=c1[nH]cc(F)c(=O)[nH]1 [5-Fluorouracil, 5-fluorouracil, reference compound]",–,–,–,–,–,7.8 µM,–
CC1(O)C2=C(N=C3Sc4ccccc4N31)C(=O)c1ccccc1C2=O (centres unmarked) [Compound 11],9.59 ± 0.32 µM,1.52,4.65 ± 0.43 µM,10.7 ± 0.57 µM,6.83 ± 1.29 µM,–,–
CCCC1(O)C2=C(N=C3Sc4cc(OC)ccc4N31)C(=O)c1ccccc1C2=O (centres unmarked) [Compound 20],1.13 ± 0.05 µM,3.17,1.89 ± 0.15 µM,4.99 ± 0.59 µM,1.67 ± 0.12 µM,1.1 to 1.61 µM,"IC50 [2, 10]: 0.11 to 1.77 µM; cell growth compared to control conditions (100%), in brackets ([8]; 0.025 µM): 96%; number of colony forming units (CFUs) ([8]; 0.025 µM): 204 ± 17 CFUs; cell growth compared to control conditions (100%), in brackets ([8]; 0.125 µM): 100%; number of colony forming units (CFUs) ([8]; 0.125 µM): 214 ± 25 CFUs; cell growth compared to control conditions (100%), in brackets ([8]; 0.25 µM): 106%; number of colony forming units (CFUs) ([8]; 0.25 µM): 225 ± 19 CFUs; cell growth compared to control conditions (100%), in brackets ([8]; 1.25 µM): 55%; number of colony forming units (CFUs) ([8]; 1.25 µM): 118 ± 22 CFUs; cell growth compared to control conditions (100%), in brackets ([8]; 2.5 µM): 42%; number of colony forming units (CFUs) ([8]; 2.5 µM): 89 ± 10 CFUs; cell growth compared to control conditions (100%), in brackets ([8]; 5.0 µM): 22%; number of colony forming units (CFUs) ([8]; 5.0 µM): 46 ± 7 CFUs"
CCCCCCCC1(O)C2=C(N=C3Sc4ccccc4N31)C(=O)c1ccccc1C2=O (centres unmarked) [Compound 14],9.04 ± 0.69 µM,0.90,8.42 ± 1.27 µM,7.28 ± 0.39 µM,6.84 ± 0.79 µM,–,–
CCCC1(O)C2=C(N=C3Sc4ccccc4N31)C(=O)c1ccccc1C2=O (centres unmarked) [Compound 12],–,1.28,–,8.82 ± 0.27 µM,–,–,IC50 [6]: 4.25 ± 0.5 µM; IC50 [7]: 11.6 ± 2.05 µM; IC50 [9]: 4.86 ± 0.5 µM
O=C1C2=C(C(=O)c3ccccc31)C(O)(c1ccco1)N1C(=N2)Sc2ccccc21 (centres unmarked) [Compound 23],19.9 ± 0.5 µM,1.72,9.29 ± 0.77 µM,21.7 ± 0.27 µM,8.62 ± 0.72 µM,10.5 to 12.6 µM,–
O=C1C2=C(C(=O)c3ccccc31)C(O)(c1cccs1)N1C(=N2)Sc2ccccc21 (centres unmarked) [Compound 25],7.85 ± 0.6 µM,1.60,8.72 ± 0.41 µM,12.8 ± 0.31 µM,7.32 ± 0.36 µM,–,–
